Assays:
Experiment in all cases: cryo-EM structure of the complex
[1] = target: T1, GTP-binding protein 7 GTPBP7 (Mus musculus, UniProt Q8R2R6); conditions: 0.5 mM GMPPNP in lysis and resuspension buffers, 10 mM Mg(OAc)2, BS3 cross-linked; pre-hydrolysis (closed) conformation; mtLSU states B1 and B2
T1 construct: gene Mtg1; BS3 cross-linked
T1 sequence (Q8R2R6 1-326): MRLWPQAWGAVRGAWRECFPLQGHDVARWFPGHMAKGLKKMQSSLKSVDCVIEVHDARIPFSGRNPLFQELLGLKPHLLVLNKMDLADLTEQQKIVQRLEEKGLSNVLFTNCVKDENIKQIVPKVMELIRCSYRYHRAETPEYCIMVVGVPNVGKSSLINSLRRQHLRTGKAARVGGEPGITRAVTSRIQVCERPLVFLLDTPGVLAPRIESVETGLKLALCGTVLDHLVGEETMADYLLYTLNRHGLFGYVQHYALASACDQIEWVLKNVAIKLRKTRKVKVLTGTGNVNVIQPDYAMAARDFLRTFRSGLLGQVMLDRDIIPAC

[2] = target: T2, GTP-binding protein 10, GTPBP10 (Mus musculus, UniProt Q8K013); conditions: 0.5 mM GMPPNP in lysis and resuspension buffers, 10 mM Mg(OAc)2, BS3 cross-linked; relatively poor local resolution, ligand placed in binding pocket; mtLSU states B1 and B2
T2 construct: BS3 cross-linked
T2 sequence (Q8K013 1-366): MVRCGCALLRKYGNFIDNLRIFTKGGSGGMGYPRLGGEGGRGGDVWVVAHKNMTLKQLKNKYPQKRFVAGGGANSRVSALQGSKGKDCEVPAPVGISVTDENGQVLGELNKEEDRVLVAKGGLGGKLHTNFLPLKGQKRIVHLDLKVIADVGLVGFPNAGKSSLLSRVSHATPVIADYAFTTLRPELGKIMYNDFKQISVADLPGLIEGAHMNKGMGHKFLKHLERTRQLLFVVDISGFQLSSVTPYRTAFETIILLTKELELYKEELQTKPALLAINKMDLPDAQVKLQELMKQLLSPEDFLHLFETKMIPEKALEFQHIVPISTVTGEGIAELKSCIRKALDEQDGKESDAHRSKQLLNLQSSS

[3] = target: rRNA methyltransferase 2, MRM2 (Mus musculus, UniProt Q9CPY0); format: binding; conditions: mtLSU state D; endogenous ligand, not added; SAM-depleted mitochondria; native sample, no GMPPNP
Chain of rRNA methyltransferase 2, MRM2 (Q9CPY0 25-246): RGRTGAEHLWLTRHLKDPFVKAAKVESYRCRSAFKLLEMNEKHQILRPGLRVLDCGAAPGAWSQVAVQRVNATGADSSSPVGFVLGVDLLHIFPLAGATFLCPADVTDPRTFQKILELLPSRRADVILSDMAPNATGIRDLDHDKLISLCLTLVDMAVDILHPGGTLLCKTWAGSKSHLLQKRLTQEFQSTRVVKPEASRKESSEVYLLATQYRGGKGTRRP

SMILES	cryo-EM structure of the complex [1]	cryo-EM structure of the complex [2]	cryo-EM structure of the complex [3]
Nc1nc2c(ncn2[C@@H]2O[C@H](COP(=O)(O)OP(=O)(O)NP(=O)(O)O)[C@@H](O)[C@H]2O)c(=O)[nH]1 [GMPPNP]	GTPBP7 adopts its GMPPNP-bound pre-hydrolysis conformation as observed previously	A molecule of GMPPNP was placed in the binding pockets of GTPBP7 and GTPBP10.	
Nc1ncnc2c1ncn2[C@@H]1O[C@H](CSCC[C@H](N)C(=O)O)[C@@H](O)[C@H]1O [SAH]			A molecule of SAH was placed in the binding pocket of MRM2

From PMC12198368, “The mitochondrial methylation potential gates mitoribosome assembly” (Nature Communications, 2025)
